Organism: Rattus norvegicus
Experiment: Open TG-GATES - Regimen: Daily Repeat
Assay type: toxicity, organism-based, Sprague-Dawley
Design: regimen Daily Repeat, gender Male, age 6 weeks
Conditions: in vivo, po, 0 mg/kg, route gavage, dose level Control; for APTT / Bas / Eos / Fbg / Hb / Ht / Lym / MCH / MCHC / MCV / Mono / Neu / PT / Plat / RBC / Ret / WBC: tissue Blood; for KIDNEY_L / KIDNEY_R / KIDNEY_TOTAL: tissue Kidney; for LIVER: tissue Liver; for A/G / ALP / ALT / AST / BUN / CRE / Ca / Cl / DBIL / GLC / IP / K / LDH / Na / PL / RALB / TBIL / TC / TG / TP / gamma-GTP: tissue Plasma

For `Nc1c2c(nc3ccccc13)CCCC2` [TACRINE], the TERMINAL_BW (72 h, time 3 day) was 222.7 g, the APTT (72 h, time 3 day) was 21.1 s and the Bas (72 h, time 3 day) was 0%. It also gave an Eos (72 h, time 3 day) of 1.2%, a Fbg (72 h, time 3 day) of 304 mg/dL and a Hb (72 h, time 3 day) of 13.6 g/dL. For the same compound, the Ht (72 h, time 3 day) was 38.7%, the Lym (72 h, time 3 day) was 80% and the MCH (72 h, time 3 day) was 21.1 pg. For the same compound, the MCHC (72 h, time 3 day) was 35%, the MCV (72 h, time 3 day) was 60.4 fL and the Mono (72 h, time 3 day) was 3%. For the same compound, the Neu (72 h, time 3 day) was 14.8%, the PT (72 h, time 3 day) was 16.8 s and the Plat (72 h, time 3 day) was 125.8 x10_4/uL. It also gave an RBC (72 h, time 3 day) of 641.8 x10_4/ul, a Ret (72 h, time 3 day) of 6.4% and a WBC (72 h, time 3 day) of 108.4 x10_2/uL. The KIDNEY_L (72 h, time 3 day) was 0.9 g, the KIDNEY_R (72 h, time 3 day) was 1 g and the KIDNEY_TOTAL (72 h, time 3 day) was 1.9 g. The LIVER (72 h, time 3 day) was 10.2 g, the A/G (72 h, time 3 day) was 1.3 and the ALP (72 h, time 3 day) was 1665.8 IU/L. For the same compound, the ALT (72 h, time 3 day) was 51.6 IU/L, the AST (72 h, time 3 day) was 79 IU/L and the BUN (72 h, time 3 day) was 17.4 mg/dL. For the same compound, the CRE (72 h, time 3 day) was 0.2 mg/dL, the Ca (72 h, time 3 day) was 10.9 mg/dL and the Cl (72 h, time 3 day) was 107.2 meq/L. It also gave a DBIL (72 h, time 3 day) of 0.002 mg/dL, a GLC (72 h, time 3 day) of 200.2 mg/dL and an IP (72 h, time 3 day) of 7.4 mg/dL. It also gave a K (72 h, time 3 day) of 4.4 meq/L, an LDH (72 h, time 3 day) of 264 IU/L and a Na (72 h, time 3 day) of 142.8 meq/L. The PL (72 h, time 3 day) was 158.4 mg/dL, the RALB (72 h, time 3 day) was 3.1 g/dL and the TBIL (72 h, time 3 day) was 0.01 mg/dL. For the same compound, the TC (72 h, time 3 day) was 72.8 mg/dL, the TG (72 h, time 3 day) was 132.8 mg/dL and the TP (72 h, time 3 day) was 5.6 g/dL. It also gave a gamma-GTP (72 h, time 3 day) of 1 IU/L, a TERMINAL_BW ([…], time 7 day) of 252.2 g and a TERMINAL_BW ([…], time 14 day) of 300.3 g. It also gave a TERMINAL_BW ([…], time 28 day) of 378.9 g, an APTT ([…], time 7 day) of 21.6 s and a Bas ([…], time 7 day) of 0%. It also gave an Eos ([…], time 7 day) of 1%, a Fbg ([…], time 7 day) of 289 mg/dL and a Hb ([…], time 7 day) of 13.5 g/dL. It also gave a Ht ([…], time 7 day) of 38.4%, a Lym ([…], time 7 day) of 85% and an MCH ([…], time 7 day) of 21.2 pg. It also gave an MCHC ([…], time 7 day) of 35.2%, an MCV ([…], time 7 day) of 60.1 fL and a Mono ([…], time 7 day) of 2.2%. The Neu ([…], time 7 day) was 11%, the PT ([…], time 7 day) was 16.3 s and the Plat ([…], time 7 day) was 122.6 x10_4/uL. For the same compound, the RBC ([…], time 7 day) was 639.4 x10_4/ul, the Ret ([…], time 7 day) was 5.5% and the WBC ([…], time 7 day) was 142.5 x10_2/uL. It also gave an APTT ([…], time 14 day) of 23 s, a Bas ([…], time 14 day) of 0% and an Eos ([…], time 14 day) of 0.8%. It also gave a Fbg ([…], time 14 day) of 323 mg/dL, a Hb ([…], time 14 day) of 15.4 g/dL and a Ht ([…], time 14 day) of 42.9%. For the same compound, the Lym ([…], time 14 day) was 79.6%, the MCH ([…], time 14 day) was 21.2 pg and the MCHC ([…], time 14 day) was 36%. It also gave an MCV ([…], time 14 day) of 58.8 fL, a Mono ([…], time 14 day) of 2.6% and a Neu ([…], time 14 day) of 16.4%. It also gave a PT ([…], time 14 day) of 15.6 s, a Plat ([…], time 14 day) of 117.8 x10_4/uL and an RBC ([…], time 14 day) of 728.8 x10_4/ul. The Ret ([…], time 14 day) was 4%, the WBC ([…], time 14 day) was 91.1 x10_2/uL and the APTT ([…], time 28 day) was 23.1 s. For the same compound, the Bas ([…], time 28 day) was 0%, the Eos ([…], time 28 day) was 1% and the Fbg ([…], time 28 day) was 321 mg/dL. The Hb ([…], time 28 day) was 15.6 g/dL, the Ht ([…], time 28 day) was 41.5% and the Lym ([…], time 28 day) was 83.4%. It also gave an MCH ([…], time 28 day) of 20.8 pg, an MCHC ([…], time 28 day) of 37.6% and an MCV ([…], time 28 day) of 55.3 fL. It also gave a Mono ([…], time 28 day) of 1.6%, a Neu ([…], time 28 day) of 13% and a PT ([…], time 28 day) of 16 s. The Plat ([…], time 28 day) was 115 x10_4/uL, the RBC ([…], time 28 day) was 752 x10_4/ul and the Ret ([…], time 28 day) was 2.9%. It also gave a WBC ([…], time 28 day) of 108.3 x10_2/uL, a KIDNEY_L ([…], time 7 day) of 1.1 g and a KIDNEY_R ([…], time 7 day) of 1.1 g. For the same compound, the KIDNEY_TOTAL ([…], time 7 day) was 2.1 g, the KIDNEY_L ([…], time 14 day) was 1.2 g and the KIDNEY_R ([…], time 14 day) was 1.2 g. The KIDNEY_TOTAL ([…], time 14 day) was 2.3 g, the KIDNEY_L ([…], time 28 day) was 1.4 g and the KIDNEY_R ([…], time 28 day) was 1.4 g. It also gave a KIDNEY_TOTAL ([…], time 28 day) of 2.9 g, an LIVER ([…], time 7 day) of 11.2 g and an LIVER ([…], time 14 day) of 12.4 g. It also gave an LIVER ([…], time 28 day) of 15.5 g, an A/G ([…], time 7 day) of 1.2 and an ALP ([…], time 7 day) of 1508 IU/L. For the same compound, the ALT ([…], time 7 day) was 36 IU/L, the AST ([…], time 7 day) was 67.6 IU/L and the BUN ([…], time 7 day) was 16.8 mg/dL. The CRE ([…], time 7 day) was 0.2 mg/dL, the Ca ([…], time 7 day) was 10.5 mg/dL and the Cl ([…], time 7 day) was 107.4 meq/L. The DBIL ([…], time 7 day) was 0 mg/dL, the GLC ([…], time 7 day) was 191.6 mg/dL and the IP ([…], time 7 day) was 7.1 mg/dL. For the same compound, the K ([…], time 7 day) was 4.2 meq/L, the LDH ([…], time 7 day) was 172.8 IU/L and the Na ([…], time 7 day) was 142 meq/L. The PL ([…], time 7 day) was 153.8 mg/dL, the RALB ([…], time 7 day) was 2.9 g/dL and the TBIL ([…], time 7 day) was 0.016 mg/dL. It also gave a TC ([…], time 7 day) of 77.6 mg/dL, a TG ([…], time 7 day) of 110 mg/dL and a TP ([…], time 7 day) of 5.4 g/dL. It also gave a gamma-GTP ([…], time 7 day) of 1 IU/L, an A/G ([…], time 14 day) of 1.3 and an ALP ([…], time 14 day) of 1565.4 IU/L. It also gave an ALT ([…], time 14 day) of 40 IU/L, an AST ([…], time 14 day) of 72 IU/L and a BUN ([…], time 14 day) of 20.6 mg/dL. The CRE ([…], time 14 day) was 0.2 mg/dL, the Ca ([…], time 14 day) was 10.7 mg/dL and the Cl ([…], time 14 day) was 108 meq/L. For the same compound, the DBIL ([…], time 14 day) was 0 mg/dL, the GLC ([…], time 14 day) was 192.8 mg/dL and the IP ([…], time 14 day) was 6.3 mg/dL. The K ([…], time 14 day) was 4.1 meq/L, the LDH ([…], time 14 day) was 184.8 IU/L and the Na ([…], time 14 day) was 142.2 meq/L. The PL ([…], time 14 day) was 161.6 mg/dL, the RALB ([…], time 14 day) was 3.3 g/dL and the TBIL ([…], time 14 day) was 0.012 mg/dL. It also gave a TC ([…], time 14 day) of 81.8 mg/dL, a TG ([…], time 14 day) of 123.4 mg/dL and a TP ([…], time 14 day) of 6 g/dL. For the same compound, the gamma-GTP ([…], time 14 day) was 1.2 IU/L, the A/G ([…], time 28 day) was 1.1 and the ALP ([…], time 28 day) was 1179.4 IU/L. The ALT ([…], time 28 day) was 38.6 IU/L, the AST ([…], time 28 day) was 61.6 IU/L and the BUN ([…], time 28 day) was 18.6 mg/dL. The CRE ([…], time 28 day) was 0.2 mg/dL, the Ca ([…], time 28 day) was 10.7 mg/dL and the Cl ([…], time 28 day) was 105.2 meq/L. It also gave a DBIL ([…], time 28 day) of 0 mg/dL, a GLC ([…], time 28 day) of 191.8 mg/dL and an IP ([…], time 28 day) of 5.9 mg/dL. It also gave a K ([…], time 28 day) of 4.1 meq/L, an LDH ([…], time 28 day) of 165.2 IU/L and a Na ([…], time 28 day) of 141.6 meq/L. For the same compound, the PL ([…], time 28 day) was 157.6 mg/dL, the RALB ([…], time 28 day) was 3.2 g/dL and the TBIL ([…], time 28 day) was 0.006 mg/dL. For the same compound, the TC ([…], time 28 day) was 75.4 mg/dL, the TG ([…], time 28 day) was 144.6 mg/dL and the TP ([…], time 28 day) was 6.2 g/dL. The gamma-GTP ([…], time 28 day) was 1 IU/L.

Reference: ChEMBL document CHEMBL3885861, “Open TG-GATES”
